Test results as given in patent US20250304594A1, “METHYL (R)-2-(FLUOROMETHYL)-5-OXO-4-PHENYL-4,5,6,7-TETRAHYDRO-1H-CYCLOPENTA[B]PYRIDINE-3-CARBOXYLATE AND METHYL (R)-2-(FLUOROMETHYL)-5-OXO-4-PHENYL-1,4,5,7-TETRAHYDROFURO[3,4-B]PYRIDINE-3-CARBOXYLATE AS Cav1,2 ACTIVATORS” (Novartis AG, priority 2020, published 2025).

Key:
[1] = target: T1, human CaV1.2 (Homo sapiens, UniProt Q13936); assay: QPatch channel biophysics assay (channel gating, V1/2 of activation, inactivation) in CaV1.2-HEK293(AUX) cells; type: cell-based
T1 construct: expressed in transfected cells; host or cells: Flp-In 293 T-Rex (HEK293), monoclonal CaV1.2-HEK293(AUX) clone 2-19B; doxycycline-induced auxiliary subunits
Description: (§1) The monoclonal CaV1.2-HEK293(AUX) cell line constitutively expresses human CaV1.2 alpha1C (α1C) subunit (CACNA1C) and has doxycycline-inducible expression of the alpha2delta (α2Δ2) auxiliary subunit (CACNA2D2) and beta2 (02) auxiliary subunit (CACNB2). To generate the cell line, expression vectors pcDNA5.0/FRT-TO-CACNA2D2-FCS-P2A-CACNB2 and pCMV6-entry-CACNA1C were established via gene synthesis and cloning. Here, pcDNA5.0/FRT-TO plasmid is from Invitrogen, pCMV6-entry is from Origene, FCS stands for Furin Cleavage Site, P2A is a peptide self-cleavage sequence derived from porcine teschovirus-1, and FRT is the Flippase recognition target site. Next, parental line Flp-In™ 293 T-Rex (Invitrogen) was transfected with pcDNA5.0/FRT-TO-CACNA2D2-FCS-P2A-CACNB2 and Flippase vector pOG44 (Invitrogen) to establish targeted integration of the CACNA2D2-FCS-P2A-CACNB2 expression cassette into the pre-engineered FRT site in Flp-In™ 293 T-Rex. This intermediate cell line was then transfected with pCMV6-entry-CACNA1C to establish stable CACNA1C expression. Clonal isolation was achieved under Neomycin selection. A cell clone (2-19B) with good voltage-dependent Barium current (see electrophysiology methods below) was selected for characterization of CaV1.2 activators.
(§2) 24 hours prior an electrophysiology experiment, doxycycline (1 μg/ml) was added to the growth medium (Table 6), and 25 μM of verapamil was co-applied to prevent calcium influx triggered cell death. Cell confluency should reach 70%-80% right before the experiment. To harvest cells (from a T175 cm^2 flask as an example), growth media were removed completely, and the cells were rinsed with 10 mL of D-PBS. D-PBS was aspirated, and 10 mL of Detachin (Genlantis) was added and the plate was placed in a 37° C. incubator for 10 minutes. Detached cells were placed into a 15 mL conical tube and spun at 1000 rpm for 2 minutes. Supernatant was removed, and cells were re-suspended in QPatch complete media (Table 7) to desired cell density of 1.5-3 million cells per QPatch run. Each experimental run uses 1.5 mL of cells.
The cells suspension was taken to the Sophion QPatch platform that uses whole-cell voltage clamp to measure barium currents conducted through CaV1.2 on single-hole QPlates. Extracellular and intracellular patch clamp solutions are described in Tables 7 and 8, respectively. A dose-response assay protocol was used to determine the maximal fold change of peak inward current (Emax) and potency (EC50) of each compound. The protocol had eight liquid periods. The first liquid period was to stabilize current amplitude, which was monitored using repetitive 200-ms voltage pulses stepping from −80 mV to 0 mV. The second liquid period was to determine baseline current amplitude in the presence of vehicle control, using a single 20-ms voltage pulse stepping from −80 mV to 0 mV. The third through eighth liquid periods were used to ascertain a 6-dose response to compound treatments, also using single 20-ms voltage pulses stepping from −80 mV to 0 mV. The EC50 was generated using the following equation Iconcentration=Ibase+(Ifull−Ibase)*c^n/(XC50^n+c^n), where c is the concentration and n is the Hill coefficient constant. Ifull is the maximal current achievable, and Ibase is 0. A channel biophysics assay protocol was used to determine channel gating properties including current-voltage relationship (IV curves), half-way channel activation voltage (V1/2), rate of channel inactivation (tau), and amplitude of tail current. Among these, V1/2 was derived from fitting equation G(V)=Gvmin+(Gvmax−Gvmin)/(1+exp(−(V−V½)/Vslope)), where G stands for conductance, Gvmin equals 0, Gvmax is the maximal conductance, and Vslope is a slope factor. G(V) was pre-calculated from equation G(V)=I(V)/(V−0.06), for each experimentally applied depolarization potential (V) and the corresponding current amplitude (I(V)), and 0.06 in the equation was the experimentally determined reversal potential in volts. […]

[2] = target: T1, human CaV1.2; assay: Sophion QPatch dose-response assay, whole-cell voltage clamp of barium currents in CaV1.2-HEK293(AUX) cells; type: cell-based; conditions: for Qpatch Emax: maximal fold change of peak inward current
Description: as §1, with “selection.” for “selection. A cell clone (2-19B) with good voltage-dependent Barium current (see electrophysiology methods below) was selected for characterization of CaV1.2 activators.”
Electrophysiological Characterization of CaV1.2 Activators Using CaV1.2-HEK293(AUX) Cell Line and QPatch
as §2
The cells suspension was taken to the Sophion QPatch platform that uses whole-cell voltage clamp to measure barium currents conducted through CaV1.2 on single-hole QPlates. Extracellular and intracellular patch clamp solutions are described in Tables 7 and 8, respectively. A dose-response assay protocol was used to determine the maximal fold change of peak inward current (Emax) and potency (EC50) of each compound. The protocol had eight liquid periods. The first liquid period was to stabilize current amplitude, which was monitored using repetitive 200-ms voltage pulses stepping from −80 mV to 0 mV. The second liquid period was to determine baseline current amplitude in the presence of vehicle control, using a single 20-ms voltage pulse stepping from −80 mV to 0 mV. The third through eighth liquid periods were used to ascertain a 6-dose response to compound treatments, also using single 20-ms voltage pulses stepping from −80 mV to 0 mV. The EC50 was generated using the following equation Iconcentration=Ibase+(Ifull−Ibase)*c^n/(XC50^n+c^n), where c is the concentration and n is the Hill coefficient constant. Ifull is the maximal current achievable, and Ibase is 0. A channel biophysics assay protocol was used to determine channel gating properties including current-voltage relationship (IV curves), half-way channel activation voltage (V1/2), rate of channel inactivation (tau), and amplitude of tail current. Among these, V1/2 was derived from fitting equation G(V)=Gvmin+(Gvmax−Gvmin)/(1+exp(−(V−V½)/Vslope)), where G stands for conductance, Gvmin equals 0, Gvmax is the maximal conductance, and Vslope is a slope factor. G(V) was pre-calculated from equation G(V)=I(V)/(V−0.06), for each experimentally applied depolarization potential (V) and the corresponding current amplitude (I(V)), and 0.06 in the equation was the experimentally determined reversal potential in volts. The protocol had four liquid periods.

[3] = Table 10 comparative examples, single enantiomers of reported racemates
[4] = Table 9, shift of half-way channel activation voltage V1/2
[5] = Table 9, 6-point dose response, 10 determinations per concentration, n = 1 unless * n = 2

T1 sequence (Q13936 1-2138 isoform Q13936-23): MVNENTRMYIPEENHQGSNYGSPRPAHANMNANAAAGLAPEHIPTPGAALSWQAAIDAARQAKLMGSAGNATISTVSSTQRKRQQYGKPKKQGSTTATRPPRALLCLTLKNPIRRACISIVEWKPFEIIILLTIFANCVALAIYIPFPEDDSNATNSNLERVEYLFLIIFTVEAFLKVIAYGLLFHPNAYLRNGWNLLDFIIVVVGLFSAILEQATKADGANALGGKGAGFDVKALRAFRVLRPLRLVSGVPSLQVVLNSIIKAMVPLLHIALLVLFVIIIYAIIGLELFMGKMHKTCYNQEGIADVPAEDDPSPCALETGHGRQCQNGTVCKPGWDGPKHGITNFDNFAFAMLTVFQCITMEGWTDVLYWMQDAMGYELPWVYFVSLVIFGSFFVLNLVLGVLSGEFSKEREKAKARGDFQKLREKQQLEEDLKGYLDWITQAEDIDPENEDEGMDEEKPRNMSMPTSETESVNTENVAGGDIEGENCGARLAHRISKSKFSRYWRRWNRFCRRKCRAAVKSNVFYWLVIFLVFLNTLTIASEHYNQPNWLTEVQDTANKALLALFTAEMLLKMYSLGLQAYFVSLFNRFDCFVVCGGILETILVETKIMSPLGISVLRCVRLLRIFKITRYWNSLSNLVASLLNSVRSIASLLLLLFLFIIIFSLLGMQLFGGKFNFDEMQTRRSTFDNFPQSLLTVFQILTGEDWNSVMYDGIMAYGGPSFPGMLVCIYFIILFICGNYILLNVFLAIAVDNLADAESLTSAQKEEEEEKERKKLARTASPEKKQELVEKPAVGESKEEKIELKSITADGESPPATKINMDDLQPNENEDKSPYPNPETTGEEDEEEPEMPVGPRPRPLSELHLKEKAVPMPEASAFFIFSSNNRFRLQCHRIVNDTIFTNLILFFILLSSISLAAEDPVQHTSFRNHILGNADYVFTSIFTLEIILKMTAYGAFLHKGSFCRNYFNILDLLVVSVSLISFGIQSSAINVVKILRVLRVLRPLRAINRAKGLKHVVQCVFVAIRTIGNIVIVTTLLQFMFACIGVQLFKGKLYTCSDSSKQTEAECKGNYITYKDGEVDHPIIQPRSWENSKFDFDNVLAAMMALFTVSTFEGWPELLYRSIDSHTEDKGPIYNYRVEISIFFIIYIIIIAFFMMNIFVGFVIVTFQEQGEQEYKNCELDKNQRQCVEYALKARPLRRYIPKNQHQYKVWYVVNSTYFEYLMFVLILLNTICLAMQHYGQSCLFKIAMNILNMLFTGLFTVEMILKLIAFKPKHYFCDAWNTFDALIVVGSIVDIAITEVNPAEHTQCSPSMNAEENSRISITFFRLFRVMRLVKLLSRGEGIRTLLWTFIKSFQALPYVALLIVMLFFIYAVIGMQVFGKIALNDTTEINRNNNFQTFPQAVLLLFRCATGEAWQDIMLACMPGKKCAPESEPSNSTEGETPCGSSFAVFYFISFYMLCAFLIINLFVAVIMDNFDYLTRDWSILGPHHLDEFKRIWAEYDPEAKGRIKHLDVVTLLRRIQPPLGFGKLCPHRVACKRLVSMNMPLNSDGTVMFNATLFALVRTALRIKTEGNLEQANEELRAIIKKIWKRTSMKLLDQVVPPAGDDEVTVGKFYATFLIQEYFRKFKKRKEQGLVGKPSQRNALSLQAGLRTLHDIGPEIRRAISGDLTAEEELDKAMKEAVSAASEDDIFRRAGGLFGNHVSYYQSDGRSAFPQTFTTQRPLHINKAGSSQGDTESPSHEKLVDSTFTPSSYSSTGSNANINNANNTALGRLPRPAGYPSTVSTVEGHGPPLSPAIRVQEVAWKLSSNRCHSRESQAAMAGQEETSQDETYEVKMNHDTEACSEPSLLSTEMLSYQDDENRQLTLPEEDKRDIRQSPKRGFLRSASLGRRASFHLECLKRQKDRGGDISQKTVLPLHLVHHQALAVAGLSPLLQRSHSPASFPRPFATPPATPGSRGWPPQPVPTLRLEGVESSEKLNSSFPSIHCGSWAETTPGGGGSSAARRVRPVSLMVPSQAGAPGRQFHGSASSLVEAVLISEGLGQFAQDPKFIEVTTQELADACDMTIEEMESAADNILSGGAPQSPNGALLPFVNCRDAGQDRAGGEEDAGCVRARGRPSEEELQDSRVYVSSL
T1 sequence (Q9NY47 19-1001 partner limits assumed): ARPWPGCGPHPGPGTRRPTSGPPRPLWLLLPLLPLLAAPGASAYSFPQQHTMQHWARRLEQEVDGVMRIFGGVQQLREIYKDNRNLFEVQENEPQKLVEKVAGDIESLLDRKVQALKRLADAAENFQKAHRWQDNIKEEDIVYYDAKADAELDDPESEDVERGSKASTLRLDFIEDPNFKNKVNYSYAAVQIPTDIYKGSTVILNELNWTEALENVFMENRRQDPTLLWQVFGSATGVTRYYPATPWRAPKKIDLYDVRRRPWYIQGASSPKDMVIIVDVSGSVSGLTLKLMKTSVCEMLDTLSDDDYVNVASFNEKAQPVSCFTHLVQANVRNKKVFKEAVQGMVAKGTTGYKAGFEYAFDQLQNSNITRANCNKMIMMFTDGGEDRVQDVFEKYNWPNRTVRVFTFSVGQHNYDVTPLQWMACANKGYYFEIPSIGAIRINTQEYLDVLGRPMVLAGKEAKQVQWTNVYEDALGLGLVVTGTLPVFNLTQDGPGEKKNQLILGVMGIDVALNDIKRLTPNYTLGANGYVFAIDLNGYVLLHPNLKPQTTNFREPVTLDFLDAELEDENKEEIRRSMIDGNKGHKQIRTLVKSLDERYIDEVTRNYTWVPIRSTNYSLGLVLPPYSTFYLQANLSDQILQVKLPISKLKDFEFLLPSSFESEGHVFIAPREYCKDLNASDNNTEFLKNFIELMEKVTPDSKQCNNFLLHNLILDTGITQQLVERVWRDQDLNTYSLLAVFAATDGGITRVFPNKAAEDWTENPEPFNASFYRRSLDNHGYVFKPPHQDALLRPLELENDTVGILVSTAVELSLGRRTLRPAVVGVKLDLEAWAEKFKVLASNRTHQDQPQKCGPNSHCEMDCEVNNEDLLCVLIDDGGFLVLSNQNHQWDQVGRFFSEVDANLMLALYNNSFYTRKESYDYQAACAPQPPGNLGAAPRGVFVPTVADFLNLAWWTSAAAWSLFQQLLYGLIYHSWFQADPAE
T1 sequence (Q9NY47 1002-1150 partner limits assumed): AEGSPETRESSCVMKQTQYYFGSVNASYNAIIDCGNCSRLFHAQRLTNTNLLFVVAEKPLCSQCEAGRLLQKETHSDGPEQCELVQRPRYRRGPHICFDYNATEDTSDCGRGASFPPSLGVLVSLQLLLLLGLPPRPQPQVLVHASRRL
T1 sequence (Q08289 whole entry partner): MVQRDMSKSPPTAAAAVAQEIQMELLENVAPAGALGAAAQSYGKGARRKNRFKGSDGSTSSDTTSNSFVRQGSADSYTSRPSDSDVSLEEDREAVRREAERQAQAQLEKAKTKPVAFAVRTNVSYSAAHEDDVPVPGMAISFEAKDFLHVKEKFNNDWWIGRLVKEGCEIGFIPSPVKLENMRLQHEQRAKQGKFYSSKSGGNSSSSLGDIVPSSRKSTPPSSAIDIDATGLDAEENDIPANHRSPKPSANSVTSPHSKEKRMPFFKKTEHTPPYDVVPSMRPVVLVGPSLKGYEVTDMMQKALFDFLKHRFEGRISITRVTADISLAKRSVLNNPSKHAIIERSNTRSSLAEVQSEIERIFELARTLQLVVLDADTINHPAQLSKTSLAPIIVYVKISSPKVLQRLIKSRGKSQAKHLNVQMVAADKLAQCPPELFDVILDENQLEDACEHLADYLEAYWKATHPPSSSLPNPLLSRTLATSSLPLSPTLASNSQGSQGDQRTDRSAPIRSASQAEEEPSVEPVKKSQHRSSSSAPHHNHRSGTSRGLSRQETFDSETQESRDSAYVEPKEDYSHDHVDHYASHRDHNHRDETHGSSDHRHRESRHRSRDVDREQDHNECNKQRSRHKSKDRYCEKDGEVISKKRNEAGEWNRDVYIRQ

## CCOC(=O)C1=C(C)NC2=C(C(=O)OC2)[C@H]1c1ccccc1OCc1ccccc1 (single isomer, unassigned) [RS30124, reference compound]
[1]; Table 10 comparative examples
  Biophysics voltage shift (mV): −15.4 mV
[2]; Table 10 comparative examples
  Qpatch Emax: 4.3
[2]; [3]
  EC50: 45 nM

## COC(=O)C1=C(C)NC(C)=C([N+](=O)[O-])[C@H]1c1ccccc1C(F)(F)F (single isomer, unassigned) [reference compound]
[2]; Table 10 comparative examples
  Qpatch Emax: 3.9

## COC(=O)C1=C(CF)NC2=C(C(=O)CC2)[C@H]1c1cccc(F)c1[C@@H](C)F (single isomer, unassigned) [Example 27, methyl (R)-4-(3-fluoro-2-((R or S)-1-fluoroethyl)phenyl)-2-(fluoromethyl)-5-oxo-4,5,6,7-tetrahydro-1H-cyclopenta[b]pyridine-3-carboxylate]
[1]; [4]
  Biophysics voltage shift (mV): −8.7 mV
[2]; [5]
  EC50: 30 nM
[2]; Table 9, n = 1 unless * n = 2
  Qpatch Emax: 1.5

## COC(=O)C1=C(CF)NC2=C(C(=O)OC2)[C@H]1c1cc(F)ccc1C1CC1 (single isomer, unassigned) [Example 21]
[1]; [4]
  Biophysics voltage shift (mV): −8.1 mV
[2]; [5]
  EC50: 30 nM
[2]; Table 9, n = 1 unless * n = 2
  Qpatch Emax: 2.8

## COC(=O)C1=C(CF)NC2=C(C(=O)OC2)[C@H]1c1cc(F)ccc1OC(F)F (single isomer, unassigned) [Example 20]
[1]; [4]
  Biophysics voltage shift (mV): −8.5 mV
[2]; [5]
  EC50: 220 nM
[2]; Table 9, n = 1 unless * n = 2
  Qpatch Emax: 3.0

## COC(=O)C1=C(CF)NC2=C(C(=O)CC2)[C@H]1c1cccc(F)c1CC(F)(F)F (single isomer, unassigned) [Example 25]
[1]; [4]
  Biophysics voltage shift (mV): −4.2 mV
[2]; [5]
  EC50: 40 nM
[2]; Table 9, n = 1 unless * n = 2
  Qpatch Emax: 1.7

## COC(=O)C1=C(CF)NC2=C(C(=O)CC2)[C@H]1c1cc(F)cc(F)c1C1CC1 (single isomer, unassigned) [Example 14]
[1]; [4]
  Biophysics voltage shift (mV): −5.5 mV
[2]; [5]
  EC50: 90 nM
[2]; Table 9, n = 1 unless * n = 2
  Qpatch Emax: 1.9

## COC(=O)C1=C(CF)NC2=C(C(=O)OC2)[C@H]1c1ccccc1C(F)(F)F (single isomer, unassigned) [Example 24]
[2]; [5]
  EC50: 160 nM

## COC(=O)C1=C(C(F)F)NC2=C(C(=O)OC2)[C@H]1c1cccc(F)c1[C@@H](C)F (single isomer, unassigned) [Example 31, methyl (R)-2-(difluoromethyl)-4-(3-fluoro-2-((R or S)-1-fluoroethyl)phenyl)-5-oxo-1,4,5,7-tetrahydrofuro[3,4-b]pyridine-3-carboxylate]
[2]; [5]
  EC50: 290 nM
[2]; Table 9, n = 1 unless * n = 2
  Qpatch Emax: 1.6

## COC(=O)C1=C(CF)NC2=C(C(=O)OC2)[C@H]1c1cc(F)cc(F)c1CC(F)F (single isomer, unassigned) [Example 12]
[1]; [4]
  Biophysics voltage shift (mV): −3.4 mV
[2]; [5]
  EC50: 80 nM
[2]; Table 9, n = 1 unless * n = 2
  Qpatch Emax: 2.3

## CCc1ccccc1[C@H]1C(C(=O)OC)=C(CF)NC2=C1C(=O)OC2 (single isomer, unassigned) [Example 30]
[2]; [5]
  EC50: 90 nM
[2]; Table 9, n = 1 unless * n = 2
  Qpatch Emax: 1.8

## COC(=O)C1=C(C)NC2=C(C(=O)OC2)[C@H]1c1ccccc1C (single isomer, unassigned) [CAS# 85825-32-7, reference compound]
[2]; [3]
  EC50: 2240 nM

## COC(=O)C1=C(CF)NC2=C(C(=O)OC2)[C@H]1c1cccc(F)c1OC(F)F (single isomer, unassigned) [Example 19]
[1]; [4]
  Biophysics voltage shift (mV): −6.7 mV
[2]; [5]
  EC50: 60 nM
[2]; Table 9, n = 1 unless * n = 2
  Qpatch Emax: 1.8

## COC(=O)C1=C(CF)NC2=C(C(=O)CC2)[C@H]1c1cc(F)cc(F)c1[C@H](C)F (single isomer, unassigned) [Example 29, methyl (R)-4-(3,5-difluoro-2-((S or R)-1-fluoroethyl)phenyl)-2-(fluoromethyl)-5-oxo-4,5,6,7-tetrahydro-1H-cyclopenta[b]pyridine-3-carboxylate]
[2]; [5]
  EC50: 50 nM
[2]; Table 9, n = 1 unless * n = 2
  Qpatch Emax: 1.4

## COC(=O)C1=C(CF)NC2=C(C(=O)OC2)[C@H]1c1ccccc1C1CC1 (single isomer, unassigned) [Example 22]
[1]; [4]
  Biophysics voltage shift (mV): −8.6 mV
[2]; [5]
  EC50: 50 nM
[2]; Table 9, n = 1 unless * n = 2
  Qpatch Emax: 2.8

## COC(=O)C1=C(CF)NC2=C(C(=O)CC2)[C@H]1c1cccc(F)c1CC(F)F (single isomer, unassigned) [Example 26]
[1]; [4]
  Biophysics voltage shift (mV): −4.3 mV
[2]; [5]
  EC50: 300 nM
[2]; Table 9, n = 1 unless * n = 2
  Qpatch Emax: 2.0
